Data reported in paper PMC5218480 (PLoS ONE, 2017).

Test system: MV-4-11 cells
Test: Gene expression microarray analysis (Affymetrix PrimeView) and GSEA
Assay type: cell-based, human
Parameters: RFU PODN (11730768_x_at) / Fold change /veh PODN (11730768_x_at) / RFU LINC00158 (11744669_a_at) / Fold change /veh LINC00158 (11744669_a_at) / RFU DUSP10 (11751237_a_at) / Fold change /veh DUSP10 (11751237_a_at) / RFU ID3 (11757404_x_at) / Fold change /veh ID3 (11757404_x_at) / RFU PLEKHG5 (11737974_s_at) / Fold change /veh PLEKHG5 (11737974_s_at) / RFU LRRC4B (11730491_at) / Fold change /veh LRRC4B (11730491_at) / RFU GIMAP4 (11747438_a_at) / Fold change /veh GIMAP4 (11747438_a_at) / RFU KRT8 (11758183_x_at) / Fold change /veh KRT8 (11758183_x_at) / RFU CNN1 (11734310_a_at) / Fold change /veh CNN1 (11734310_a_at) / RFU VPS37D (11726825_at) / Fold change /veh VPS37D (11726825_at) / RFU C10orf10 (11716522_x_at) / Fold change /veh C10orf10 (11716522_x_at) / RFU KIR2DL2 /// KIR2DL4 /// KIR2DL5A /// KIR2DL5B /// KIR2DS1 /// KIR2DS2 /// KIR2DS3 /// KIR2DS4 /// KIR3DL3 /// KIR3DL3 /// KIR3DS1 (11738374_at) / Fold change /veh KIR2DL2 /// KIR2DL4 /// KIR2DL5A /// KIR2DL5B /// KIR2DS1 /// KIR2DS2 /// KIR2DS3 /// KIR2DS4 /// KIR3DL3 /// KIR3DL3 /// KIR3DS1 (11738374_at) / RFU C1QL1 (11718748_at) / Fold change /veh C1QL1 (11718748_at) / RFU TMPRSS4 (11747572_a_at) / Fold change /veh TMPRSS4 (11747572_a_at) / RFU HAMP (11756126_x_at) / Fold change /veh HAMP (11756126_x_at) / RFU RNFT2 (11725882_a_at) / Fold change /veh RNFT2 (11725882_a_at) / RFU NR4A2 (11747474_a_at) / Fold change /veh NR4A2 (11747474_a_at) / RFU ABCC12 (11746883_a_at) / Fold change /veh ABCC12 (11746883_a_at) / RFU TMEM136 (11760407_x_at) / Fold change /veh TMEM136 (11760407_x_at) / RFU CLDN22 /// WWC2 (11732394_at) / Fold change /veh CLDN22 /// WWC2 (11732394_at) / RFU HLA-DPB1 (11760878_x_at) / Fold change /veh HLA-DPB1 (11760878_x_at) / RFU SPINT1 (11716480_a_at) / Fold change /veh SPINT1 (11716480_a_at) / RFU GAP43 (11754022_s_at) / Fold change /veh GAP43 (11754022_s_at) / RFU A4GNT (11735810_at) / Fold change /veh A4GNT (11735810_at) / RFU PRB3 (11715151_x_at) / Fold change /veh PRB3 (11715151_x_at) / RFU TUBB4B (11761932_at) / Fold change /veh TUBB4B (11761932_at) / RFU CAPN14 (11732068_a_at) / Fold change /veh CAPN14 (11732068_a_at) / RFU TMCC2 (11721928_a_at) / Fold change /veh TMCC2 (11721928_a_at) / RFU IRGQ (11745062_a_at) / Fold change /veh IRGQ (11745062_a_at) / RFU FAM174B (11720279_a_at) / Fold change /veh FAM174B (11720279_a_at) / RFU TMPRSS4 (11748680_a_at) / Fold change /veh TMPRSS4 (11748680_a_at) / RFU FAM212B (11763350_a_at) / Fold change /veh FAM212B (11763350_a_at) / RFU PLEKHG5 (11743358_a_at) / Fold change /veh PLEKHG5 (11743358_a_at) / RFU ZSCAN30 (11745921_a_at) / Fold change /veh ZSCAN30 (11745921_a_at) / RFU CMKLR1 (11741424_a_at) / Fold change /veh CMKLR1 (11741424_a_at) / RFU LOC101060620 /// MAPK8IP1 (11723275_at) / Fold change /veh LOC101060620 /// MAPK8IP1 (11723275_at) / RFU SPTSSB (11747773_x_at) / Fold change /veh SPTSSB (11747773_x_at) / RFU PRSS12 (11739890_at) / Fold change /veh PRSS12 (11739890_at) / RFU BIN1 (11741810_x_at) / Fold change /veh BIN1 (11741810_x_at) / RFU WNT11 (11732464_a_at) / Fold change /veh WNT11 (11732464_a_at) / RFU C10orf10 (11716521_a_at) / Fold change /veh C10orf10 (11716521_a_at) / RFU C5orf56 (11738089_at) / Fold change /veh C5orf56 (11738089_at) / RFU CYB561 (11721691_x_at) / Fold change /veh CYB561 (11721691_x_at) / RFU ANKRD19P (11752326_a_at) / Fold change /veh ANKRD19P (11752326_a_at) / RFU OR2T12 /// OR2T33 /// OR2T8 (11738714_s_at) / Fold change /veh OR2T12 /// OR2T33 /// OR2T8 (11738714_s_at) / RFU VCAN (11748164_a_at) / Fold change /veh VCAN (11748164_a_at) / RFU JSRP1 (11732532_at) / Fold change /veh JSRP1 (11732532_at) / RFU KRTAP10-11 (11738290_x_at) / Fold change /veh KRTAP10-11 (11738290_x_at) / RFU MYO3A (11730013_a_at) / Fold change /veh MYO3A (11730013_a_at) / RFU EBF3 (11725865_a_at) / Fold change /veh EBF3 (11725865_a_at) / RFU CAMK2N1 (11719241_x_at) / Fold change /veh CAMK2N1 (11719241_x_at) / RFU C5orf56 (11738088_a_at) / Fold change /veh C5orf56 (11738088_a_at) / RFU OLFML3 (11715873_a_at) / Fold change /veh OLFML3 (11715873_a_at) / RFU LOC100653217 /// NTM (11731650_a_at) / Fold change /veh LOC100653217 /// NTM (11731650_a_at) / RFU MAPK11 (11762145_a_at) / Fold change /veh MAPK11 (11762145_a_at) / RFU FIZ1 (11724087_x_at) / Fold change /veh FIZ1 (11724087_x_at) / RFU OASL (11726364_x_at) / Fold change /veh OASL (11726364_x_at) / RFU SOX15 (11748057_x_at) / Fold change /veh SOX15 (11748057_x_at) / RFU CD79A (11719716_a_at) / Fold change /veh CD79A (11719716_a_at) / RFU HIST1H1D (11736915_at) / Fold change /veh HIST1H1D (11736915_at) / RFU CASKIN2 (11723855_a_at) / Fold change /veh CASKIN2 (11723855_a_at) / RFU LOC730098 (11760151_x_at) / Fold change /veh LOC730098 (11760151_x_at) / RFU OR4N2 (11742367_at) / Fold change /veh OR4N2 (11742367_at) / RFU PRRT2 (11749266_a_at) / Fold change /veh PRRT2 (11749266_a_at) / RFU SNX32 (11753110_a_at) / Fold change /veh SNX32 (11753110_a_at) / RFU CDHR5 (11726645_a_at) / Fold change /veh CDHR5 (11726645_a_at) / RFU RCAN1 (11760418_a_at) / Fold change /veh RCAN1 (11760418_a_at) / RFU FAM167A (11723789_a_at) / Fold change /veh FAM167A (11723789_a_at) / RFU FAM26E (11764081_at) / Fold change /veh FAM26E (11764081_at) / RFU ISYNA1 (11749810_s_at) / Fold change /veh ISYNA1 (11749810_s_at) / RFU ACY1 (11761880_at) / Fold change /veh ACY1 (11761880_at) / RFU 11764098_at / Fold change /veh 11764098_at / RFU SAMD14 (11745864_x_at) / Fold change /veh SAMD14 (11745864_x_at) / RFU NPB (11741838_a_at) / Fold change /veh NPB (11741838_a_at) / RFU TMPRSS6 (11731388_a_at) / Fold change /veh TMPRSS6 (11731388_a_at) / RFU KRTAP10-2 (11738614_at) / Fold change /veh KRTAP10-2 (11738614_at) / RFU ARHGAP8 /// PRR5-ARHGAP8 (11727945_x_at) / Fold change /veh ARHGAP8 /// PRR5-ARHGAP8 (11727945_x_at) / RFU KRTAP5-7 /// NADSYN1 (11734609_at) / Fold change /veh KRTAP5-7 /// NADSYN1 (11734609_at) / RFU RASL12 (11751679_a_at) / Fold change /veh RASL12 (11751679_a_at) / RFU CDKN2B (11736163_a_at) / Fold change /veh CDKN2B (11736163_a_at) / RFU PRF1 (11729649_at) / Fold change /veh PRF1 (11729649_at) / RFU, ZNF638 /// ZNF638-IT1 / Fold change vs veh, ZNF638 /// ZNF638-IT1 / RFU, PANK3 / Fold change vs veh, PANK3 / RFU, SH3YL1 / Fold change vs veh, SH3YL1 / RFU, ZEB2 / Fold change vs veh, ZEB2 / RFU, NRIP1 / Fold change vs veh, NRIP1 / RFU, PTTG1IP / Fold change vs veh, PTTG1IP / RFU, CAPN2 / Fold change vs veh, CAPN2 / RFU, MED14 / Fold change vs veh, MED14 / RFU, SNORA58 / Fold change vs veh, SNORA58 / RFU, C1orf63 / Fold change vs veh, C1orf63 / RFU, LRRFIP1 / Fold change vs veh, LRRFIP1 / RFU, NDUFAF7 / Fold change vs veh, NDUFAF7 / RFU, SLC12A2 / Fold change vs veh, SLC12A2 / RFU, IBTK / Fold change vs veh, IBTK / RFU, ESF1 / Fold change vs veh, ESF1 / Fold change vs veh, TMEM50B / RFU, TAOK1 / Fold change vs veh, TAOK1 / RFU, ACBD3 / Fold change vs veh, ACBD3 / RFU, TMA16 / Fold change vs veh, TMA16 / RFU, RWDD3 / Fold change vs veh, RWDD3 / RFU, BCAT1 / Fold change vs veh, BCAT1 / RFU, EDEM3 / Fold change vs veh, EDEM3 / RFU, TMEM33 / Fold change vs veh, TMEM33 / RFU, WDR75 / Fold change vs veh, WDR75 / RFU, AHCTF1 / Fold change vs veh, AHCTF1 / RFU, TFRC / Fold change vs veh, TFRC / RFU, ZDHHC17 / Fold change vs veh, ZDHHC17 / RFU, NOM1 / Fold change vs veh, NOM1 / RFU, ARL8B / Fold change vs veh, ARL8B / RFU, ZBTB11 / Fold change vs veh, ZBTB11 / RFU, TAMM41 / Fold change vs veh, TAMM41 / RFU, KIAA1704 /// LOC100996395 / Fold change vs veh, KIAA1704 /// LOC100996395 / RFU, ING1 / Fold change vs veh, ING1 / RFU, TRMT61B / Fold change vs veh, TRMT61B / RFU, FUBP3 / Fold change vs veh, FUBP3 / RFU, TP53 / Fold change vs veh, TP53 / RFU, TNKS2 / Fold change vs veh, TNKS2 / RFU, ZFP14 / Fold change vs veh, ZFP14 / RFU, ACTR2 / Fold change vs veh, ACTR2 / RFU, PPP3R1 / Fold change vs veh, PPP3R1 / RFU, PIK3R1 / Fold change vs veh, PIK3R1 / RFU, HNRNPA1 / Fold change vs veh, HNRNPA1 / RFU, RNF170 / Fold change vs veh, RNF170 / RFU, ZNF28 / Fold change vs veh, ZNF28 / RFU, RNGTT / Fold change vs veh, RNGTT / RFU, OGT / Fold change vs veh, OGT / RFU, BRD1 / Fold change vs veh, BRD1 / RFU, MARS / Fold change vs veh, MARS / RFU, ZNF655 / Fold change vs veh, ZNF655 / RFU, FAHD1 / Fold change vs veh, FAHD1 / RFU, BDP1 / Fold change vs veh, BDP1 / RFU, LRRCC1 / Fold change vs veh, LRRCC1 / RFU, ARID1A / Fold change vs veh, ARID1A / RFU, ZNF146 / Fold change vs veh, ZNF146 / RFU, ZNF330 / Fold change vs veh, ZNF330 / RFU, GPN3 / Fold change vs veh, GPN3 / RFU, C9orf123 / Fold change vs veh, C9orf123 / RFU, N4BP2L2 / Fold change vs veh, N4BP2L2 / RFU, ARFIP1 / Fold change vs veh, ARFIP1 / RFU, FAM179B / Fold change vs veh, FAM179B / RFU, BCL10 / Fold change vs veh, BCL10 / RFU, UHRF1BP1L / Fold change vs veh, UHRF1BP1L / RFU, BET1 / Fold change vs veh, BET1 / RFU, CNOT2 / Fold change vs veh, CNOT2 / RFU, ZNF268 / Fold change vs veh, ZNF268 / Fold change vs veh, ZNF507 / RFU, DGCR2 / Fold change vs veh, DGCR2 / RFU, WDSUB1 / Fold change vs veh, WDSUB1 / Fold change vs veh, HSP90B1 /// MIR3652 / RFU, ADSS / Fold change vs veh, ADSS / RFU, GK / Fold change vs veh, GK / RFU, ZNF148 / Fold change vs veh, ZNF148 / RFU, TAF9 / Fold change vs veh, TAF9 / RFU, SLC1A5 / Fold change vs veh, SLC1A5 / RFU, SLMO2 / Fold change vs veh, SLMO2 / RFU, ABCC4 / Fold change vs veh, ABCC4 / RFU, LOC101060439 /// RAP1B / Fold change vs veh, LOC101060439 /// RAP1B / RFU, RFX7 / Fold change vs veh, RFX7 / RFU, GTPBP10 / Fold change vs veh, GTPBP10 / RFU, CNEP1R1 / Fold change vs veh, CNEP1R1 / RFU, BIVM-ERCC5 /// ERCC5 / Fold change vs veh, BIVM-ERCC5 /// ERCC5 / RFU, ILF3 / Fold change vs veh, ILF3 / RFU 11762660_at / Fold change /veh 11762660_at / RFU VCAN (11757783_s_at) / Fold change /veh VCAN (11757783_s_at) / RFU DDX43 (11728927_at) / Fold change /veh DDX43 (11728927_at) / RFU KRT8 (11758188_x_at) / Fold change /veh KRT8 (11758188_x_at) / RFU NKD1 (11759106_at) / Fold change /veh NKD1 (11759106_at) / RFU SRD5A1 (11742802_a_at) / Fold change /veh SRD5A1 (11742802_a_at) / RFU TPSAB1 /// TPSB2 (11721975_s_at) / Fold change /veh TPSAB1 /// TPSB2 (11721975_s_at) / RFU GSTM3 (11746129_a_at) / Fold change /veh GSTM3 (11746129_a_at) / RFU IL23R (11737362_x_at) / Fold change /veh IL23R (11737362_x_at) / RFU TMEM51 (11727254_a_at) / Fold change /veh TMEM51 (11727254_a_at) / RFU PIWIL2 (11732686_x_at) / Fold change /veh PIWIL2 (11732686_x_at) / RFU ORM1 (11744905_x_at) / Fold change /veh ORM1 (11744905_x_at) / RFU CCDC152 (11743942_at) / Fold change /veh CCDC152 (11743942_at) / RFU ECM1 (11717891_a_at) / Fold change /veh ECM1 (11717891_a_at) / RFU IL23R (11748794_a_at) / Fold change /veh IL23R (11748794_a_at) / RFU TNFAIP8L3 (11732012_x_at) / Fold change /veh TNFAIP8L3 (11732012_x_at) / RFU MBOAT4 (11741988_at) / Fold change /veh MBOAT4 (11741988_at) / RFU 11764193_at / Fold change /veh 11764193_at / RFU TMEM53 (11763286_at) / Fold change /veh TMEM53 (11763286_at) / RFU MAGEB2 (11727129_at) / Fold change /veh MAGEB2 (11727129_at) / RFU TMEM200A (11744735_a_at) / Fold change /veh TMEM200A (11744735_a_at) / RFU CCDC152 (11751479_a_at) / Fold change /veh CCDC152 (11751479_a_at) / RFU FAM211A (11726209_a_at) / Fold change /veh FAM211A (11726209_a_at) / RFU RGS16 (11746705_a_at) / Fold change /veh RGS16 (11746705_a_at) / RFU VCAN (11755009_s_at) / Fold change /veh VCAN (11755009_s_at) / RFU RHOB (11743442_s_at) / Fold change /veh RHOB (11743442_s_at) / RFU RGS16 (11720943_a_at) / Fold change /veh RGS16 (11720943_a_at) / RFU RGS16 (11720944_at) / Fold change /veh RGS16 (11720944_at) / RFU, VPS4B / Fold change vs veh, VPS4B / RFU, CREB1 / Fold change vs veh, CREB1 / RFU, DNAJC13 / Fold change vs veh, DNAJC13 / RFU, GNAQ / Fold change vs veh, GNAQ / RFU, CDK5R1 / Fold change vs veh, CDK5R1 / RFU, ZRANB3 / Fold change vs veh, ZRANB3 / RFU, CUL4A / Fold change vs veh, CUL4A / RFU, CCNY / Fold change vs veh, CCNY / RFU, UFL1 / Fold change vs veh, UFL1 / RFU, COG3 / Fold change vs veh, COG3 / RFU, DIAPH2 / Fold change vs veh, DIAPH2 / RFU, SKA2 / Fold change vs veh, SKA2 / RFU, AFF3 / Fold change vs veh, AFF3 / RFU, LMF1 / Fold change vs veh, LMF1 / RFU, IPO11 / Fold change vs veh, IPO11 / RFU, DFFB / Fold change vs veh, DFFB / RFU, FOXP1 / Fold change vs veh, FOXP1 / RFU, CARD8 / Fold change vs veh, CARD8 / RFU, STRN3 / Fold change vs veh, STRN3 / RFU, ADK / Fold change vs veh, ADK / RFU, RASSF2 / Fold change vs veh, RASSF2 / RFU, WIPF1 / Fold change vs veh, WIPF1 / RFU, LARP1B / Fold change vs veh, LARP1B / RFU, RASA1 / Fold change vs veh, RASA1 / RFU, RB1 / Fold change vs veh, RB1 / RFU, PPFIA1 / Fold change vs veh, PPFIA1 / RFU, MAT2A / Fold change vs veh, MAT2A / RFU, CCT5 / Fold change vs veh, CCT5 / RFU, WDR92 / Fold change vs veh, WDR92 / RFU, CUX1 / Fold change vs veh, CUX1 / RFU, TTC7A / Fold change vs veh, TTC7A / RFU, TMEM135 / Fold change vs veh, TMEM135 / RFU, DEPTOR / Fold change vs veh, DEPTOR / RFU, CPM / Fold change vs veh, CPM / RFU, DNAJB6 / Fold change vs veh, DNAJB6 / RFU, CACNA2D3 / Fold change vs veh, CACNA2D3 / RFU, DTX4 / Fold change vs veh, DTX4 / RFU, TFCP2 / Fold change vs veh, TFCP2 / RFU, GMCL1 /// GMCL1P1 / Fold change vs veh, GMCL1 /// GMCL1P1 / RFU, AEBP2 / Fold change vs veh, AEBP2 / RFU, SNHG1 /// SNORD22 /// SNORD25 /// SNORD26 /// SNORD27 /// SNORD28 /// SNORD29 /// SNORD31 / Fold change vs veh, SNHG1 /// SNORD22 /// SNORD25 /// SNORD26 /// SNORD27 /// SNORD28 /// SNORD29 /// SNORD31 / Fold change (Aza/veh), C12orf56 (ProbeSet 11735607_a_at) / Fold change (ACY-1035/veh), C12orf56 (ProbeSet 11735607_a_at) / Fold change (Aza/veh), FGFR1OP (ProbeSet 11751329_s_at) / Fold change (ACY-1035/veh), FGFR1OP (ProbeSet 11751329_s_at) / Fold change (Aza/veh), VPS36 (ProbeSet 11739960_a_at) / Fold change (ACY-1035/veh), VPS36 (ProbeSet 11739960_a_at) / RFU SYPL1 (11715823_x_at) / Fold change /veh SYPL1 (11715823_x_at) / RFU IGFBP7 (11715501_s_at) / Fold change /veh IGFBP7 (11715501_s_at) / RFU REEP3 (11722064_at) / Fold change /veh REEP3 (11722064_at) / RFU IGLL1 (11728026_x_at) / Fold change /veh IGLL1 (11728026_x_at): dose or concentration left out as unconfirmed
Conditions: MV-4-11 cells, 48 hours

Nc1ccc(-c2cccs2)cc1NC(=O)c1ccc2c(c1)cc(C1CC1)n2CCN1CCOCC1 [ACY-1035]
Fold change /veh BIN1 (11741810_x_at): 1.15
